Laboratory results from article PMC7835349 (Communications Biology, 2021).
Values joined by “and” are separate entries in the source; they are usually repeats but may differ in a detail not shown here. Equal values may be shown once.

Columns and labels:
[1] = Formulation dependent plasma and tumour pharmacokinetics of AZD4320 (Fig S2b); format: in vivo; conditions: mouse, 5 mg/kg IV, 30% HPbCD
Method: Supplementary Figure 2. Formulation dependent efficacy of AZD4320 (a) A single 5mg/kg IV bolus dose of AZD4320 formulated in 30% hydroxypropyl-β-cyclodextrin (HP-β-CD) […]
Data in the graphs are represented as mean tumor volume
± SEM (n=5). Arrow indicates dosing schedule.(b) A pharmacokinetic profile from both […]
explained by differential profiles in the plasma. The plasma profiles are similar. The efficacy is consistent with the concentration profiles observed in the tumour (n=4, Tween formulation, yellow, n=8 HP-β-CD formulation, purple). Lines connect the mean values.
(1 picture or pasted object on this page, not shown here)

[2] = Mathematical model of in vivo disposition of drug-dendrimer conjugates; parameters: species or system mouse; conditions: best fit of Eq. (3) to released AZD4320 in RS4;11 tumour

## CN(CCO)CCC(CSc1ccccc1)Nc1ccc(S(=O)(=O)NC(=O)c2ccc(N3CCC(C(O)c4ccccc4-c4ccc(Cl)cc4)CC3)cc2)cc1S(=O)(=O)C(F)(F)F (stereo not drawn) [AZD4320]
[1]; C.B-17 SCID, plasma, iv, 5 mg/kg, 6 h, study CIV-12-112
  concentration at 6 h: 65 nM
[1]; C.B-17 SCID, tumour, iv, 5 mg/kg, Tumor, 0.5 h, study CIV-11-055
  concentration at 0.5 h: 815 nM
[1]; C.B-17 SCID, tumour, iv, 5 mg/kg, Tumor, 1 h, study CIV-11-055
  concentration at 1 h: 473 nM
[1]; C.B-17 SCID, tumour, iv, 5 mg/kg, Tumor, 6 h, study CIV-11-055
  concentration at 6 h: 312 nM
[1]; C.B-17 SCID, tumour, iv, 5 mg/kg, Tumor, 6 h, study CIV-12-112
  concentration at 6 h: 436 nM
[1]; C.B-17 SCID, tumour, iv, 5 mg/kg, Tumor, 24 h, study CIV-11-055
  concentration at 24 h: 275 nM
[1]; C.B-17 SCID, tumour, iv, 5 mg/kg, Tumor, 24 h, study CIV-12-112
  concentration at 24 h: 165 nM
[1]; Plasma, 6 h, study CIV-12-112
  Concentration: 114 nM and 108 nM and 59 nM
[1]; Tumor, 0.5 h, study CIV-11-055
  Concentration: 750 nM and 857 nM and 503 nM
[1]; Tumor, 1 h, study CIV-11-055
  Concentration: 394 nM and 626 nM and 461 nM
[1]; Tumor, 6 h, study CIV-11-055
  Concentration: 253 nM and 344 nM and 313 nM
[1]; Tumor, 6 h, study CIV-12-112
  Concentration: 568 nM and 289 nM and 439 nM
[1]; Tumor, 24 h, study CIV-11-055
  Concentration: 196 nM and 164 nM and 174 nM
[1]; Tumor, 24 h, study CIV-12-112
  Concentration: 172 nM and 93 nM and 130 nM
[2]
  Constant for return of released AZD4320 from tumour tissue to systemic circulation (first order) ktu: 0.053 h⁻¹
